These results are taken from patent publication US9849193B2, “Nanoparticles for drug delivery” (University of Louisville Research Foundation, Inc., priority 2013, dated 2017).

The structures appear in SMILES notation.

A short description of the data set: Heat-induced release of drug surrogate (alcohol 11 or amine 12) from linkers in methanol, HPLC quantification. To be noted: for % release after heating (55° C.) at time (h) 0.25 / % release after heating (55° C.) at time (h) 0.5 / % release after heating (55° C.) at time (h) 0.75 / % release after heating (55° C.) at time (h) 1 / % release after heating (55° C.) at time (h) 2 / % release after heating (55° C.) at time (h) 3 / % release after heating (55° C.) at time (h) 24 h / % release at rt, 3.5 h: release of alcohol 11, mean ± SD, n = 3; for % release after heating (55° C.) at time (h) 0.25 / % release after heating (55° C.) at time (h) 0.5 / % release after heating (55° C.) at time (h) 0.75 / % release after heating (55° C.) at time (h) 1 / % release after heating (55° C.) at time (h) 2 / % release after heating (55° C.) at time (h) 3 / % release after heating (55° C.) at time (h) 24 h / Heat-induced release of 11 or 12 (result in words, spans all time columns): methanol ca. 0.01 M; for % release after heating (55° C.) at time (h) 0.25: 0.25 h; for % release after heating (55° C.) at time (h) 0.5: 0.5 h; for % release after heating (55° C.) at time (h) 0.75: 0.75 h; for % release after heating (55° C.) at time (h) 1: 1 h; for % release after heating (55° C.) at time (h) 2: 2 h; for % release after heating (55° C.) at time (h) 3: 3 h; for % release at rt, 3.5 h: room temperature control; for Heat-induced release of 11 or 12 (result in words, spans all time columns): 55° C. up to 24 h and rt 3.5 h. The class given is physicochemical. The protocol:
Methanol (MeOH) was used as a solvent to provide a protic solvent capable of hydrogen bonding. The amine-containing linker compounds, formed on Boc-deprotection with basic work-up (compounds 4.1-3, 8.1-2, 9, 10), were diluted with MeOH (2 mL, ˜0.01 M). An aliquot was removed to serve as a room temperature control. Heat was applied to the MeOH solutions using an oil bath. The temperature was set at 55° C., and the solutions were heated for a total of 24 h. Aliquots were taken at t=0.25, 0.50, 0.75, 1, 2, 3, and 24 h into the reaction. On sampling, the aliquots were, immediately stored at −5° C. On completion of the experiment, the samples were warmed to room temperature, filtered and dried under reduced pressure (3.5 h duration) and then returned to −5° C. Each sample was then removed individually from the freezer and diluted with 400 μL CH2Cl2 before injecting 50 μL into an HPLC fitted with a normal phase silica column (Waters Nova-Pak HR Silica, 6 μm, 60 Å, 3.9×300 mm prep column; 1% MeOH in CH2Cl2 with 0.1% Et3N). HPLC analysis enabled quantification of released 11 or 12. Schemes 3 and 4 depict the intramolecular cyclization processes to release the drug surrogate (e.g., 11 or 12). […] FIG. 12 graphically illustrates the heat-induced release of alcohol 11 (Table 1). The substrates were heated as methanol solutions (ca. 0.01 M) at 55° C. for the indicated times as described above.

Consider `C=CCNCCCC(=O)OCCc1c2ccccc2cc2ccccc12` [Compound 4.1, 2-(anthracen-9-yl)ethyl 4-(allylamino)butanoate], for which the “% release after heating (55° C.) at time (h) 0.25” value (shortened to “% release after heating … (h) 0.25”) was 24.6 ± 3.1%, the “% release after heating (55° C.) at time (h) 0.5” value (from here on “% release after heating … (h) 0.5”) amounted to 29.2 ± 1.7%, the “% release after heating (55° C.) at time (h) 0.75” value (“% release after heating … (h) 0.75” below) came out at 33.4 ± 2.5% and the “% release after heating (55° C.) at time (h) 1” value (“% release after heating … (h) 1” below) was found to be 36.6 ± 2.6%. The “% release after heating (55° C.) at time (h) 2” value stood at 44.4 ± 3.7%; the “% release after heating (55° C.) at time (h) 3” value (“% release after heating … (h) 3” for short) turned out to be 50.2 ± 4.2%; the “% release after heating (55° C.) at time (h) 24 h” value (from here on “% release after heating … (h) 24 h”) came to 94.0 ± 1.8%; the “% release at rt, 3.5 h” value worked out at 20.2 ± 3.1%.
Consider `C=CCNCCCCC(=O)OCCc1c2ccccc2cc2ccccc12` [Compound 4.2, 2-(anthracen-9-yl)ethyl 5-(allylamino)pentanoate], for which the “% release after heating … (h) 0.25” value is recorded as 20.9 ± 1.9%, the “% release after heating … (h) 0.5” value was determined as 21.6 ± 3.5%, the “% release after heating … (h) 0.75” value is listed as 23.0 ± 3.0% and the “% release after heating … (h) 1” value came to 25.0 ± 2.1%. The “% release after heating (55° C.) at time (h) 2” value was 30.5 ± 1.3%; the “% release after heating … (h) 3” value is reported as 36.5 ± 1.2%; the “% release after heating … (h) 24 h” value is 75.7 ± 3.2%; the “% release at rt, 3.5 h” value turned out to be 17.0 ± 4.5%.
As to `C=CCNCCCCCC(=O)OCCc1c2ccccc2cc2ccccc12` [Compound 4.3, 2-(anthracen-9-yl)ethyl 6-(allylamino)hexanoate], the “% release after heating … (h) 0.25” value is reported as 2.1 ± 1.6%, the “% release after heating … (h) 0.5” value is 1.8 ± 1.9%, the “% release after heating … (h) 0.75” value was 2.1 ± 2.2% and the “% release after heating … (h) 1” value is listed as 2.1 ± 1.8%. Moreover, the “% release after heating (55° C.) at time (h) 2” value amounted to 3.1 ± 2.9%; the “% release after heating … (h) 3” value is 3.6 ± 3.0%; the “% release after heating … (h) 24 h” value is 10.4 ± 3.8%; the “% release at rt, 3.5 h” value came to 1.7 ± 2.0%.
Consider `C=CCNCCOC(=O)OCCc1c2ccccc2cc2ccccc12` [Compound 8.1, 2-(allylamino)ethyl(2-(anthracen-9-yl)ethyl) carbonate], for which the “% release after heating … (h) 0.25” value was determined as 23.5 ± 1.9%, the “% release after heating … (h) 0.5” value was 28.9 ± 1.7%, the “% release after heating … (h) 0.75” value worked out at 32.4 ± 4.0% and the “% release after heating … (h) 1” value was 36.7 ± 4.8%. The “% release after heating (55° C.) at time (h) 2” value came out at 48.3 ± 5.7%; the “% release after heating … (h) 3” value was 57.0 ± 6.9%; the “% release after heating … (h) 24 h” value came to 68.9 ± 3.0%; the “% release at rt, 3.5 h” value was found to be 18.8 ± 2.3%.
Take `C=CCNCCCOC(=O)OCCc1c2ccccc2cc2ccccc12` [Compound 8.2, 3-(allylamino)propyl(2-(anthracen-9-yl)ethyl) carbonate]: the “% release after heating … (h) 0.25” value came out at 12.0 ± 0.8%, the “% release after heating … (h) 0.5” value came to 14.1 ± 0.7%, the “% release after heating … (h) 0.75” value stood at 16.4 ± 1.0% and the “% release after heating … (h) 1” value worked out at 18.0 ± 0.7%. Also, the “% release after heating (55° C.) at time (h) 2” value stood at 24.8 ± 1.1%; the “% release after heating … (h) 3” value is 29.0 ± 1.0%; the “% release after heating … (h) 24 h” value is 62.1 ± 5.6%; the “% release at rt, 3.5 h” value is reported as 9.6 ± 1.1%.
Turning to `C=CCNCCCC(=O)NCCc1c2ccccc2cc2ccccc12` [Compound 9, 4-(allylamino)-N-(2-(anthracen-9-yl)ethyl)butanamide], the “Heat-induced release of 11 or 12 (result in words, spans all time columns)” value is listed as “no reaction”.
For the molecule `C=CCNCCNC(=O)OCCc1c2ccccc2cc2ccccc12` [Compound 10, 2-(anthracen-9-yl)ethyl(2-(allylamino)ethyl)carbamate], the “Heat-induced release of 11 or 12 (result in words, spans all time columns)” value was “no reaction”.
Regarding `C=CCNCCC(C)(C)CCC(=O)OCCc1c2ccccc2cc2ccccc12` [Compound 20, 2-(anthracen-9-yl)ethyl 6-(allylamino)-4,4-dimethylhexanoate], the “% release after heating … (h) 0.25” value is given as 2.0 ± 0.1%, the “% release after heating … (h) 0.5” value is recorded as 2.2 ± 0.1%, the “% release after heating … (h) 0.75” value came out at 2.7 ± 0.1% and the “% release after heating … (h) 1” value worked out at 3.3 ± 0.4%. Moreover, the “% release after heating (55° C.) at time (h) 2” value stood at 4.1 ± 0.3%; the “% release after heating … (h) 3” value is recorded as 5.2 ± 0.8%; the “% release after heating … (h) 24 h” value was found to be 24.7 ± 3.9%; the “% release at rt, 3.5 h” value was found to be 1.8 ± 0.2%.
`C=CCNCCC(C)(C)COC(=O)OCCc1c2ccccc2cc2ccccc12` [Compound 23, 4-(allylamino)-2,2-dimethylbutyl(2-(anthracen-9-yl)ethyl) carbonate]: the “% release after heating … (h) 0.25” value turned out to be 1.8 ± 0.4%, the “% release after heating … (h) 0.5” value was found to be 2.3 ± 0.5%, the “% release after heating … (h) 0.75” value was 2.9 ± 0.1% and the “% release after heating … (h) 1” value came out at 4.0 ± 0.3%. The “% release after heating (55° C.) at time (h) 2” value is 5.7 ± 1.0%; the “% release after heating … (h) 3” value came out at 7.6 ± 0.3%; the “% release after heating … (h) 24 h” value came out at 36.6 ± 0.3%; the “% release at rt, 3.5 h” value came out at 0.7 ± 0.1%.
